According to BindingDB's records for doi:10.1016/j.ejmech.2013.01.009 (Fudan University, 2013):

Target: Signal transducer and activator of transcription 3 (Homo sapiens, UniProt P40763)
Assay: Inhibition of STAT3 in IL-6-stimulated human HepG2 cells treated for 1 hr prior to IL-6 challenge measured after 5.5 hrs by luciferase reporter gene assay

Signal transducer and activator of transcription 3, sequence (P40763 whole entry): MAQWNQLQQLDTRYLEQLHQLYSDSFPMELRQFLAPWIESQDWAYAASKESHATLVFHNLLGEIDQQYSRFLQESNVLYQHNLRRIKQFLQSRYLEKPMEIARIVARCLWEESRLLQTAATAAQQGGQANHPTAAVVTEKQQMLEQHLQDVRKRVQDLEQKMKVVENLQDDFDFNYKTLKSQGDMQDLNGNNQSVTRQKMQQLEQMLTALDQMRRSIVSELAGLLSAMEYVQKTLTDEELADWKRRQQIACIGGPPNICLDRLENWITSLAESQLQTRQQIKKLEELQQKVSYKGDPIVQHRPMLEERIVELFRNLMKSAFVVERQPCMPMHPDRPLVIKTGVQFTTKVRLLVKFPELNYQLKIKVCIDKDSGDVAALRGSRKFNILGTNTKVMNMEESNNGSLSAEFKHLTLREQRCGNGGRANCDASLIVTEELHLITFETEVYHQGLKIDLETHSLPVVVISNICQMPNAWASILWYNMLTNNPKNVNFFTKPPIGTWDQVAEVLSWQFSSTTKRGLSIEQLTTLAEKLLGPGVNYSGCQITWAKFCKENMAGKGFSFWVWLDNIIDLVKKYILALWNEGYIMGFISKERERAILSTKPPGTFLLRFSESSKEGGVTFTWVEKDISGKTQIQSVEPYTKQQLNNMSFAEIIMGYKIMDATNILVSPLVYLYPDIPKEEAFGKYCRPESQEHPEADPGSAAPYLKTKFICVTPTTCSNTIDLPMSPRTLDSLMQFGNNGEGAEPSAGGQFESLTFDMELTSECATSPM

- IC50: 3.57 µM
SMILES: CCC(Sc1nc2ccc(NC(=O)c3ccc(OC)cc3)cc2s1)C(=O)Nc1ccc(Br)cc1 (stereo unspecified)
